Laboratory results reported in BindingDB's records for doi:10.1016/j.bmcl.2003.09.075 (Eli Lilly, 2003).

Tests used:
[1] = target: NS3 protease (Hepatitis C virus); assay: Inhibitory activity against Protease using replicon assay […] at 25 uM concentration
[2] = target: NS3 protease (Hepatitis C virus); assay: Binding affinity towards Protease using PNA assay
[3] = target: NS3 protease (Hepatitis C virus); assay: Inhibitory activity against HCV protease in enzyme inhibition assay
[4] = target: NS3 protease (Hepatitis C virus); assay: Inhibitory activity against HCV protease using replicon assay […]

Q: For `CC(C)[C@H](NC(=O)c1cnccn1)C(=O)N[C@H](C(=O)N1C[C@@H]2CCC[C@@H]2[C@H]1C(=O)NC(CC(F)F)C(=O)C(=O)NC1CC1)C(C)C` (stereo partly drawn) [(1S,5S,6R)-2-((S)-3-Methyl-2-{(S)-3-methyl-2-[(pyrazine-2-carbonyl)-amino]-butyrylamino}-butyryl)-octahydro-cyclopenta[c]pyrrole-1-carboxylic acid (1-cyclopropylaminooxalyl-3,3-difluoro-propyl)-amide], which IC50 [1] is on record?
A: 3780 nM

Q: What about the Ki [2] of the same compound?
A: 220 nM

Q: For `CC(C)[C@H](NC(=O)c1cnccn1)C(=O)N[C@H](C(=O)N1C[C@@H]2CCC[C@@H]2[C@H]1C(=O)N[C@@H](CC(F)F)C(=O)C(=O)N[C@@H](C)c1ccccc1)C(C)C` [(1S,5S,6R)-2-((S)-3-Methyl-2-{(S)-3-methyl-2-[(pyrazine-2-carbonyl)-amino]-butyrylamino}-butyryl)-octahydro-cyclopenta[c]pyrrole-1-carboxylic acid [3,3-difluoro-1-((S)-(S)-1-phenyl-ethylaminooxalyl)-propyl]-amide], which Ki [3] is on record?
A: 400 nM

Q: And the IC50 [4]?
A: 910 nM

Q: For `CCC[C@H](NC(=O)[C@@H]1[C@H]2CCC[C@H]2CN1C(=O)[C@@H](NC(=O)[C@@H](NC(=O)c1cnccn1)C(C)C)C(C)(C)C)C(=O)C(=O)NC(C)CC` (stereo partly drawn) [(1S,5S,6R)-2-((S)-3,3-Dimethyl-2-{(S)-3-methyl-2-[(pyrazine-2-carbonyl)-amino]-butyrylamino}-butyryl)-octahydro-cyclopenta[c]pyrrole-1-carboxylic acid [1-((S)-sec-butylaminooxalyl)-butyl]-amide], which IC50 [1] is on record?
A: 3480 nM

Q: What about the Ki [2] of the same compound?
A: 210 nM

Q: For `CC(C)[C@H](NC(=O)c1cnccn1)C(=O)N[C@H](C(=O)N1C[C@@H]2CCC[C@@H]2[C@H]1C(=O)N[C@@H](CC(F)F)C(=O)C(=O)N[C@@H](C)c1ccccc1)C(C)(C)C` [(1S,5S,6R)-2-((S)-3,3-Dimethyl-2-{(S)-3-methyl-2-[(pyrazine-2-carbonyl)-amino]-butyrylamino}-butyryl)-octahydro-cyclopenta[c]pyrrole-1-carboxylic acid [3,3-difluoro-1-((S)-(S)-1-phenyl-ethylaminooxalyl)-propyl]-amide], which IC50 [4] is on record?
A: 630 nM

Q: And the Ki [2]?
A: 120 nM

Q: What does the source list for `CCC(C)NC(=O)C(=O)[C@H](CC(F)F)NC(=O)[C@@H]1[C@H]2CCC[C@H]2CN1C(=O)[C@@H](NC(=O)[C@@H](NC(=O)c1cnccn1)C(C)C)C(C)(C)C` (stereo partly drawn) [(1S,5S,6R)-2-((S)-3,3-Dimethyl-2-{(S)-3-methyl-2-[(pyrazine-2-carbonyl)-amino]-butyrylamino}-butyryl)-octahydro-cyclopenta[c]pyrrole-1-carboxylic acid [1-((S)-sec-butylaminooxalyl)-3,3-difluoro-propyl]-amide]?
A: IC50 [4]: 2610 nM; Ki [2]: 480 nM
